Where two headings read alike, the source gives them in different places. Where a SMILES comes first, the peptide text is derived from it. [ ]: non-standard residue; d: D form. dPhe(4-Cl) = N[C@H](Cc1ccc(Cl)cc1)C(=O)O; d2Nal = N[C@H](Cc1ccc2ccccc2c1)C(=O)O; dCit = NC(=O)NCCC[C@@H](N)C(=O)O; d3Pal = N[C@H](Cc1cccnc1)C(=O)O
Columns and labels:
cancer cells = assay: Potency in destroying cancer cells; format: cell-based
[1] = system: human endometrial cancer cell lines; details: cited from earlier work
[2] = system: human ovarian cancer cell lines; details: cited from earlier work
[3] = in vivo
[4] = system: MDA-MB-435S human breast cancer cells; assay: Cytotoxicity study, thiazolyl Blue (MTT) cell viability; format: cell-based; details: 9 hours incubation
Description: MDA-MB-435S cells were seeded into 12 well plates and grown in culture media containing Leibovitz's L-15 medium, 10% fetal bovine serum, 0.01 mg/mL bovine insulin, 100 IU/mL penicillin, and 100 μg/mL streptomycin. The cells were kept in tightly closed flasks at 37° C. in an incubator and grown to 70% confluence. Treatments with free Phor21-βCG(ala) were conducted at concentrations of 5, 20, and 100 μM. Treatments with silica-peptide nanoshells were conducted at corresponding amounts, equivalent to total Phor21-βCG(ala) concentrations of 5, 20, and 100 μM. On a separate plate silica nanoshells without peptide (15 mg/mL culture medium) were added to MDA-MB-435S cell cultures to determine their effect on cell viability. In all incubations, added saline was used as a control. Total incubation time was 9 hours at 37° C. Cell viability was measured in a thiazolyl Blue assay using [3-(4,5)-Dimethylthiazol-2-yl]-2,5 Diphenyltetrazolium Bromide—MTT. Cleavage of the tetrazolium ring by active mitochondria was used as a measure of the number of living cells. Statistical significance was determined using analysis of variance (ANOVA) and a two-tailed Student's t-test. Differences were considered significant at p<0.05.

breast cancer xenograft = details: intravenously injected, cited from earlier work
[5] = cited from earlier work
[6] = cited from earlier work; remark: listed apart in the source

Q: Which “potency in destroying cancer cells versus Hecate or Phor14” value (cancer cells) does the source give for “Phor21: membrane-disrupting lytic peptide, residues 1-21 of SEQ ID NO. 1 (KFAKFAKKFAKFAKKFAKFAK; Phor21-beta-CG(ala) Peptide)” here?
A: more potent

Q: What does the source list for `CC(=O)N[C@H](Cc1ccc2ccccc2c1)C(=O)N[C@H](Cc1ccc(Cl)cc1)C(=O)N[C@H](Cc1cccnc1)C(=O)N[C@@H](CO)C(=O)N[C@@H](Cc1ccc(O)cc1)C(=O)N[C@H](CCCNC(N)=O)C(=O)N[C@@H](CC(C)C)C(=O)N[C@@H](CCCNC(=N)N)C(=O)N1CCC[C@H]1C(=O)N[C@H](C)C(N)=O` [Cetrorelix] (Ac-[d2Nal][dPhe(4-Cl)][d3Pal]SY[dCit]LRP[dA]-NH2)?
A: in vitro proliferation [1]: inhibited; in vitro proliferation [2]: inhibited

Q: With “Phor21-βCG(ala): 35-residue conjugate peptide KFAKFAKKFAKFAKKFAKFAK-SYAVASAQAALAAR (SEQ ID NO. 1): lytic peptide Phor21 plus gonadotropin analog ligand βCG(ala) (KFAKFAKKFAKFAKKFAKFAKSYAVASAQAALAAR; Phor21-beta-CG(ala) Peptide)” as the molecule, how does the “time after which free peptide is almost completely destroyed in circulation” value [3] read?
A: about three

Q: What about the “activity at 100 micromolar versus 20 micromolar” value [4] of the same molecule?
A: significantly lower activity

Q: What about the “toxicity against breast cancer cells” value ([4]; free peptide, 5, 20 and 100 μM, N=6) of the same molecule?
A: destroyed

Q: What about the “cell death in treated tumors” value (breast cancer xenograft; 8 mg/kg body weight, p<0.01) of the same molecule?
A: lower

Q: What about the “cell death in treated tumors” value (breast cancer xenograft; 0.2 and 2 mg/kg body weight, p<0.05) of the same molecule?
A: significantly higher

Q: Which solubility in water [5] does the source give for `C[C@@H]1C[C@H]2[C@@H]3CCC4=CC(=O)C=C[C@]4(C)[C@@]3(F)[C@@H](O)C[C@]2(C)[C@@]1(O)C(=O)CO` [Dexamethasone] here?
A: insoluble

Q: For “luteinizing hormone releasing hormone [LHRH]”, which half-life in vivo [6] is on record?
A: ~20 min

Q: With `CC(C)C[C@H](NC(=O)[C@@H](Cc1c[nH]c2ccccc12)NC(=O)[C@H](Cc1ccc(O)cc1)NC(=O)[C@H](CO)NC(=O)[C@H](Cc1c[nH]c2ccccc12)NC(=O)[C@H](Cc1c[nH]cn1)NC(=O)[C@@H]1CCC(=O)N1)C(=O)N[C@@H](CCCNC(=N)N)C(=O)N1CCC[C@H]1C(=O)NCC(N)=O` [triptorelin] as the molecule, how does the in vitro proliferation [1] read?
A: inhibited

Q: What about the in vitro proliferation [2] of the same molecule?
A: inhibited

Reference: patent publication US20090061006A1, “Layered Nanoparticles for Sustained Release of Small Molecules” (priority 2006, published 2009)
